{"source": "patent US5994365A", "about": "“Substituted diazaanthracene compounds having pharmaceutical utility” (Diazans Limited, priority 1998, dated 1999)", "key": {"S. aureus ATCC 25923": {"system": "S. aureus ATCC 25923", "experiment": "Microbroth dilution assay of antimicrobial susceptibility (MIC)", "format": "cell-based, Staphylococcus aureus", "conditions": "microdilution, CAMHB, 37° C., 18 hrs", "method": "It is described below, using E. coli ATCC® 25922, S. aureus ATCC® 25923, and P. aeruginosa ATCC® 27853. Prepare 0.0128 g DAA in 10 mL dH2 O (or 95% EtOH, methanol or DMSO if H2 O insoluble)=1280 μg/mL (stock solution). Dilute DAA stock solution 1:10 with CAMHB (Cation-Adjusted Mueller Hinton Broth): 0.5 mL DAA stock solution+4.5 mL CAMHB=128 μg/mL (DAA working solution). Pipette 100 μl of sterile CAMHB per well into columns 2-12 of rows A-G using Eppendorf repeater pipette. Pipette 100 μl per well of sterile-filtered DAA working solution into columns 1 and 2 of rows A, C, E, G using Jensen electric pipette. Mix and transfer 100 μl from column 2 to 3 of rows A, C, E, G using Jensen pipette. Repeat to column 12 then discard 100 μl from column 12. Rows B, D and F are positive growth control lanes for each organism and contain only CAMHB and the organism--no DAA. Row H is the media additive control lane, if necessary (e.g. MeOH, EtOH, DMSO etc.). The concentration of the media additive is obtained by doing a 1:10 dilution of the additive with CAMHB (0.5 mL additive+4.5 mL CAMHB). Row G is considered to be \"negative growth control\" and is loaded with only CAMHB and the DAA. Inoculate 0.5 mL TSB (Trypticase Soy Broth) tubes with 3 single colonies each of E. coli, S. aureus, and P. Aeruginosa from TSA plates using sterile needle. Incubate @ 37° C. for 4-6 hr. Measure out 100 mL CAMHB using the sterile 100 mL volumetric flask. Pour the excess into a sterile reagent reservoir. Pipette 0.5 mL and discard, leaving 99.5 mL in each of the 3-Erlenmeyer flasks. Set aside. Use the excess CAMHB for the 1:10 dilution of inoculum: 0.5 mL inoculum+4.5 mL CAMHB. Perform a 1:200 dilution of inoculum: 0.5 mL of 1:10 diluted inoculum+99.5 mL CAMHB from previous step. Pipette 100 μl (using Eppendorf repeater pipette) E. coli into each well in columns 1-12 of rows A and B and columns 1-4 of row H (if media additive control lane necessary). Pipette 100 μl P. aeruginosa into each well in columns 1-12 of rows C and D and columns 5-8 of row H (if media additive control lane is necessary). Pipette 100 μl S. aureus into each well in columns 1-12 of rows E and F and columns 9-12 of row H (if media additive control lane is necessary). Incubate microtiter plates @ 37° C. for 18 hrs. The lowest concentration of antimicrobial agent that results in significant inhibition of visible growth represents the MIC (Minimal Inhibitory Concentration)."}, "[1]": {"system": "Staneg (coagulase negative Staph)", "experiment": "Minimal bactericidal concentration (MBC), 99.9% kill", "format": "cell-based, Coagulase negative staphylococci", "set-up": "unit not given here", "method": "Broth microdilution was performed according to NCCLS guidelines. Microdilution panels were prepared using doubling dilutions of the dimer in ~250 μl plastic, 96-well trays. Inoculum suspension equal to a 0.5 McFarland standard were further diluted and added to the microdilution trays to achieve a final inoculum of 5×10^5 CFU/ml (5×10^4 CFU/well). Colony counts were performed to confirm the final inoculum, as well as its purity. Each strain was also tested in a growth control well containing only MHB for viability.\nVarious isolates were also tested for minimal bactericidal concentration (MBC) (see Tables D and F).\nSubbed clear wells (50 μl) Inoculum 5 × 10^4 /well\n99.9% kill = 50 cols/well\nSubbed 50 μl of ≤5 clear wells"}, "[2]": {"experiment": "Precipitation of the dimer on dilution with Mueller-Hinton broth", "format": "physicochemical", "conditions": "resuspended upon mixing", "method": "The dimer product of Example 15 was obtained in powder form. A stock solution of 1280 mg/L of the dimer in dimethylsulfoxide (DMSO) was prepared and stored at room temperature in a foil-wrapped screw-capped tube (10 ml). Subsequent dilutions were prepared using cation-adjusted Mueller-Hinton broth (50 mg/L Mg). […] It was resuspended upon mixing each time an aliquot was taken from the solution."}}}
{"substance": "10,10'-bis(3,6-dimethyl-5,10-dihydro-1,8-diazaanthracen-5-one) and 5,5'-bis(3,6-dimethyl-5,10-dihydro-1,8-diazaanthracen-10-one) [Example 15]", "values": [{"measurement": "MIC", "setting": "S. aureus ATCC 25923", "result": 0.0625, "unit": "µg/mL"}, {"measurement": "MBC", "setting": "[1]; Table D, Staneg 1, skipped wells", "result": "> 16"}, {"measurement": "MBC", "setting": "[1]; Table D, Staneg 2, skipped wells", "result": "> 4"}, {"measurement": "MBC", "setting": "[1]; Table D, Staneg 3", "result": 16}, {"measurement": "MBC", "setting": "[1]; Table D, Staneg 4", "result": "> 16"}, {"measurement": "MBC", "setting": "[1]; Table D, Staneg 5, skipped wells", "result": 16}, {"measurement": "MBC", "setting": "[1]; Table D, Staneg 6", "result": 8}, {"measurement": "MBC", "setting": "[1]; Table D, Staneg 7, skipped wells", "result": "> 16"}, {"measurement": "MBC", "setting": "[1]; Table D, Staneg 8", "result": 16}, {"measurement": "MBC", "setting": "[1]; Table F, Staneg 1", "result": "> 1.0"}, {"measurement": "MBC", "setting": "[1]; Table F, Staneg 4, skipped wells", "result": "> 16"}, {"measurement": "MBC", "setting": "[1]; Table F, Staneg 7", "result": 1.0}, {"measurement": "precipitation", "setting": "[2]; at 128 mg/L in MHB", "result": "Some precipitation occurred at 128 mg/L"}, {"measurement": "precipitation upon dilution with MH broth", "setting": "[2]; from 1280 mg/L DMSO stock, after sitting for short periods", "result": "some precipitation upon dilution with MH broth"}]}
